Laboratory results: patent US9187455B2, “Substituted pyridazines as PDE10A inhibitors” (Hoffmann-La Roche Inc., priority 2009, dated 2015)

These compounds were tested against T1, PDE10A2 (Homo sapiens, UniProt Q9Y233) (assay: PDE10A2 Scintillation Proximity Assay (SPA), [3H]-cGMP hydrolysis). Conditions: catalytic domain of human PDE10A2 (S449-D789), 0.25 nM enzyme, 50 nM cGMP + 50 nM [3H]-cGMP, 30 minutes at room temperature; read-out: PDE10A2 inhibition IC50.
T1 construct: residues serine 449 to aspartate 789; His6 (H6) with Gateway linker and thrombin cleavage site (N, cleaved yes); made in house; host or cells: E. coli BL21(DE3) pLysS
Format: biochemical
Procedure: The following tests were carried out in order to determine the activity of the compounds of the present invention. PDE10 activity of the compounds of the present invention is determined using a Scintillation Proximity Assay (SPA)-based method similar to the one previously described (Fawcett, L. et al., ProcNatl Acad Sci USA (2000) 97(7):3702-3707).
PDE10A1 and PDE10A2 are two splice variants of PDE10A. There are these 2 splice variants known, which differ in the N-terminal part of the protein. The catalytic domains of PDE10A1 and PDE10A2 are identical. The assay for PDE10A2 described below is therefore also representative for PDE10A1 and also for PDE10A in general.
The PDE10A2 assay was performed in a two step procedure in 96-well micro titer plates. The reaction mixture of 80 μl contained 20 mM HEPES/10 mM MgCl2/[…] (pH 7.5), 50 nM cGMP (Sigma) and 50 nM [^3H]-cGMP (GE Healthcare), 0.25 nM PDE10A2 with or without a specific test compound. A range of concentrations of the potential inhibitor was used to generate data for calculating the concentration of inhibitor resulting in 50% of the effect (e.g. IC50, the concentration of the competitor inhibiting PDE10A2 activity 50%). Non-specific activity was tested without the enzyme. The reaction was initiated by addition of the substrate solution (cGMP and [^3H]-cGMP) and allowed to progress for 30 minutes at room temperature. The reaction was terminated by transferring 50 μl of the reaction mixture into an OptiPlate (Perkin Elmer) containing 25 μl of YSi-SPA scintillation beads (GE Healthcare) in 18 mM zinc sulphate solution (stop reagent). After 1 h under shaking, the plate was centrifuged one minute at 1000 rpm to allow beads to settle. Afterwards, radioactive counts were measured on a Perkin Elmer TopCount Scintillation plate reader.
The catalytic domain of human PDE10A2, residues serine 449 to aspartate 789, was amplified by PCR using cDNA (Origene) and the oligonucleotides 5′-GGGGACAAGTTTGT […]-3′ (with AttB1 recombination site in bold and thrombin protease cleavage site in italics) and 5′-[…]-3′ (with AttB2 recombination site in bold) which conferred Gateway recombination sites. The PCR product was used in a BP recombination reaction with pDONR221 to generate pENTR Thm-PDE10A2(S449-D789) which was DNA sequence verified and then used in an LR recombination reaction with a Gateway modified version of pET11a. The resulting expression vector, placT7.2H6-(gwl)-Thm-PDE10A2(S449-D789) was DNA sequence confirmed and transformed into E. coli strain BL21(DE3) pLysS and recombinant protein was produced in TB medium at 20° C. by induction to a final IPTG concentration of 0.5 mM at an optical density of 1.0 at 600 nm for 20 hours. About 30% of the protein was in the soluble fraction of the cell homogenate. The protein was purified using sequential chromatography on Ni-NTA and HiTrapQ/HiTrapS. After thrombin digest at room temperature a HiTrapChelating/HiTrap Benzamindin chromatography removed impurities, uncleaved protein and thrombin. Final purification of PDE10A2(S449-D789) was performed on a Superdex 75 size exclusion chromatography equilibrated with 25 mM HEPES pH 8.4, 0.15 M NaCl. The yield of pure protein was 2 mg/liter of culture volume is relatively low. The purity of the protein was >95%, monomeric and monodisperse as shown by SDS-PAGE, HPLC and analytical ultracentrifugation.

T1 sequence (Q9Y233 715-1055): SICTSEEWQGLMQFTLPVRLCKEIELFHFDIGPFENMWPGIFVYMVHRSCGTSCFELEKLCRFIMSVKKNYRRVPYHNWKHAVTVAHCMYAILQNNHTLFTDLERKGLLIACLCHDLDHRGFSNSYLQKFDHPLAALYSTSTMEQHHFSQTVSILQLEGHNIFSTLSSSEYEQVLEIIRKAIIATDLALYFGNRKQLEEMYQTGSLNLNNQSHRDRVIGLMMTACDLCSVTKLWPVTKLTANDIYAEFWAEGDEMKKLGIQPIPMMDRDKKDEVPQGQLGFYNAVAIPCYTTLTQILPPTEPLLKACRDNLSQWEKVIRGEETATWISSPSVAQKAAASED

Row | IC50 | SMILES
1 | 437 nM | Cc1cc(-n2ccc(=O)c(-c3ccnn3-c3ccc4c(c3)OCCO4)n2)ccn1 [Example 38, 3-[2-(2,3-Dihydro-benzo[1,4]dioxin-6-yl)-2H-pyrazol-3-yl]-1-(2-methyl-pyridin-4-yl)-1H-pyridazin-4-one]
2 | 2560 nM | Cc1cc(-n2ccc(=O)c(-c3ccnn3-c3cccc(F)c3)n2)ccn1 [Example 39, 3-[2-(3-Fluoro-phenyl)-2H-pyrazol-3-yl]-1-(2-methyl-pyridin-4-yl)-1H-pyridazin-4-one]
3 | 414 nM | COc1cc(-n2ccc(=O)c(-c3ccnn3-c3cccc(F)c3)n2)ccn1 [Example 40, 3-[2-(3-Fluoro-phenyl)-2H-pyrazol-3-yl]-1-(2-methoxy-pyridin-4-yl)-1H-pyridazin-4-one]
4 | 82 nM | O=c1ccn(-c2ccnc(N3CCOCC3)c2)nc1-c1ccnn1-c1ccc2c(c1)OCCO2 [Example 41, 3-[2-(2,3-Dihydro-benzo[1,4]dioxin-6-yl)-2H-pyrazol-3-yl]-1-(2-morpholin-4-yl-pyridin-4-yl)-1H-pyridazin-4-one]
5 | 1420 nM | O=c1ccn(-c2ccnc(N3CCOCC3)c2)nc1-c1ccnn1-c1cccc(F)c1 [Example 42, 3-[2-(3-Fluoro-phenyl)-2H-pyrazol-3-yl]-1-(2-morpholin-4-yl-pyridin-4-yl)-1H-pyridazin-4-one]
6 | 663 nM | N#Cc1cc(-n2ccc(=O)c(-c3ccnn3-c3ccc4c(c3)OCCO4)n2)ccn1 [Example 43, 4-{3-[2-(2,3-Dihydro-benzo[1,4]dioxin-6-yl)-2H-pyrazol-3-yl]-4-oxo-4H-pyridazin-1-yl}-pyridine-2-carbonitrile]
7 | 2290 nM | N#Cc1cc(-n2ccc(=O)c(-c3ccnn3-c3cccc(F)c3)n2)ccn1 [Example 44, 4-{3-[2-(3-Fluoro-phenyl)-2H-pyrazol-3-yl]-4-oxo-4H-pyridazin-1-yl}-pyridine-2-carbonitrile]
8 | 259 nM | CS(=O)(=O)c1cncc(-n2ccc(=O)c(-c3ccnn3-c3cccc(F)c3)n2)c1 [Example 45, 3-[2-(3-Fluoro-phenyl)-2H-pyrazol-3-yl]-1-(5-methanesulfonyl-pyridin-3-yl)-1H-pyridazin-4-one]
9 | 57 nM | O=c1ccn(-c2ccnc(O)c2)nc1-c1ccnn1-c1ccc2c(c1)OCCO2 [Example 46, 3-[2-(2,3-Dihydro-benzo[1,4]dioxin-6-yl)-2H-pyrazol-3-yl]-1-(2-hydroxy-pyridin-4-yl)-1H-pyridazin-4-one]
10 | 352 nM | O=c1ccn(-c2cccnc2)nc1-c1ccnn1-c1cc(F)ccc1F [Example 47, 3-[2-(2,5-Difluoro-phenyl)-2H-pyrazol-3-yl]-1-pyridin-3-yl-1H-pyridazin-4-one]
11 | 25 nM | Cc1cncc(-n2ccc(=O)c(-c3ccnn3-c3ccnc4ccc(F)cc34)n2)c1 [Example 48, 3-[2-(6-Fluoro-quinolin-4-yl)-2H-pyrazol-3-yl]-1-(5-methyl-pyridin-3-yl)-1H-pyridazin-4-one]
12 | 163 nM | O=c1ccn(-c2cncc(F)c2)nc1-c1ccnn1-c1ccnc2ccc(F)cc12 [Example 49, 1-(5-Fluoro-pyridin-3-yl)-3-[2-(6-fluoro-quinolin-4-yl)-2H-pyrazol-3-yl]-1H-pyridazin-4-one]
13 | 87 nM | O=c1ccn(-c2cccnc2)nc1-c1ccnn1-c1ccnc2ccc(F)cc12 [Example 50, 3-[2-(6-Fluoro-quinolin-4-yl)-2H-pyrazol-3-yl]-1-pyridin-3-yl-1H-pyridazin-4-one]
14 | 20 nM | O=c1ccn(-c2cncc(Cl)c2)nc1-c1ccnn1-c1ccnc2ccccc12 [Example 51, 1-(5-Chloro-pyridin-3-yl)-3-(2-quinolin-4-yl-2H-pyrazol-3-yl)-1H-pyridazin-4-one]
15 | 177 nM | O=c1ccn(-c2cncc(Cl)c2)nc1-c1ccnn1-c1ccnc2ccc(F)cc12 [Example 52, 1-(5-Chloro-pyridin-3-yl)-3-[2-(6-fluoro-quinolin-4-yl)-2H-pyrazol-3-yl]-1H-pyridazin-4-one]
16 | 65 nM | O=c1ccn(-c2cncc(Cl)c2)nc1-c1ccnn1-c1cccc(Cl)c1 [Example 53, 3-[2-(3-Chloro-phenyl)-2H-pyrazol-3-yl]-1-(5-chloro-pyridin-3-yl)-1H-pyridazin-4-one]
17 | 66 nM | O=c1ccn(-c2ccnc(Cl)c2)nc1-c1ccnn1-c1ccnc2ccccc12 [Example 54, 1-(2-Chloro-pyridin-4-yl)-3-(2-quinolin-4-yl-2H-pyrazol-3-yl)-1H-pyridazin-4-one]
18 | 122 nM | O=c1ccn(-c2ccnc(Cl)c2)nc1-c1ccnn1-c1ccnc2ccc(F)cc12 [Example 55, 1-(2-Chloro-pyridin-4-yl)-3-[2-(6-fluoro-quinolin-4-yl)-2H-pyrazol-3-yl]-1H-pyridazin-4-one]
19 | 50 nM | O=c1ccn(-c2ccnc(Cl)c2)nc1-c1ccnn1-c1cccc(Cl)c1 [Example 56, 3-[2-(3-Chloro-phenyl)-2H-pyrazol-3-yl]-1-(2-chloro-pyridin-4-yl)-1H-pyridazin-4-one]
20 | 1540 nM | O=c1ccn(-c2ccnc(Cl)c2)nc1-c1ccnn1-c1ccnc(Cl)c1 [Example 57, 1-(2-Chloro-pyridin-4-yl)-3-[2-(2-chloro-pyridin-4-yl)-2H-pyrazol-3-yl]-1H-pyridazin-4-one]
21 | 89 nM | O=c1ccn(-c2ccnc(Cl)c2)nc1-c1ccnn1-c1cccc2ncccc12 [Example 58, 1-(2-Chloro-pyridin-4-yl)-3-(2-quinolin-5-yl-2H-pyrazol-3-yl)-1H-pyridazin-4-one]
22 | 220 nM | O=c1ccn(-c2ccnc(Cl)c2)nc1-c1ccnn1-c1cccc2cnccc12 [Example 59, 1-(2-Chloro-pyridin-4-yl)-3-(2-isoquinolin-5-yl-2H-pyrazol-3-yl)-1H-pyridazin-4-one]
23 | 78 nM | O=c1ccn(-c2cncc(Cl)c2)nc1-c1ccnn1-c1cccc2ncccc12 [Example 60, 1-(5-Chloro-pyridin-3-yl)-3-(2-quinolin-5-yl-2H-pyrazol-3-yl)-1H-pyridazin-4-one]
24 | 220 nM | O=c1ccn(-c2cncc(Cl)c2)nc1-c1ccnn1-c1ccnc2ccc(Cl)cc12 [Example 61, 1-(5-Chloro-pyridin-3-yl)-3-[2-(6-chloro-quinolin-4-yl)-2H-pyrazol-3-yl]-1H-pyridazin-4-one]
25 | 154 nM | O=c1ccn(-c2ccnc(Cl)c2)nc1-c1ccnn1-c1ccnc2ccc(Cl)cc12 [Example 62, 1-(2-Chloro-pyridin-4-yl)-3-[2-(6-chloro-quinolin-4-yl)-2H-pyrazol-3-yl]-1H-pyridazin-4-one]
26 | 78 nM | O=c1ccn(-c2ccnc(Cl)c2)nc1-c1ccnn1-c1ccccc1F [Example 63, 1-(2-Chloro-pyridin-4-yl)-3-[2-(2-fluoro-phenyl)-2H-pyrazol-3-yl]-1H-pyridazin-4-one]
27 | 148 nM | O=c1ccn(-c2cncc(Cl)c2)nc1-c1ccnn1-c1ccccc1F [Example 64, 1-(5-Chloro-pyridin-3-yl)-3-[2-(2-fluoro-phenyl)-2H-pyrazol-3-yl]-1H-pyridazin-4-one]
28 | 144 nM | O=c1ccn(-c2cncc3ccccc23)nc1-c1ccnn1-c1ccccc1F [Example 65, 3-[2-(2-Fluoro-phenyl)-2H-pyrazol-3-yl]-1-isoquinolin-4-yl-1H-pyridazin-4-one]
29 | 100 nM | O=c1ccn(-c2cncc3ccccc23)nc1-c1ccnn1-c1cccc(Cl)c1 [Example 66, 3-[2-(3-Chloro-phenyl)-2H-pyrazol-3-yl]-1-isoquinolin-4-yl-1H-pyridazin-4-one]
30 | 56 nM | O=c1ccn(-c2cncc(C(F)(F)F)c2)nc1-c1ccnn1-c1cccc(Cl)c1 [Example 67, 3-[2-(3-Chloro-phenyl)-2H-pyrazol-3-yl]-1-(5-trifluoromethyl-pyridin-3-yl)-1H-pyridazin-4-one]
